Reference: ChEMBL document CHEMBL5120839, “Design, synthesis and antibacterial activity of novel pleuromutilin derivatives with thieno[2,3-d]pyrimidine substitution” (Eur J Med Chem, 2022)
In brackets after ≈: the same amount, converted by molar mass. Activity calls are given as the source filed them. The rule behind the calls is not given here.

What was measured:
[1] = system: Staphylococcus aureus; test: Bactericidal activity against Staphylococcus aureus assessed as bacterial killing at 8 times MIC incubated up to 24 hrs by time kill assay; format: functional, organism-based
[2] = system: Escherichia coli; test: Antibacterial activity against Escherichia coli assessed as inhibition of bacterial growth incubated for 24 hrs by microbroth two-fold dilution method; format: functional
[3] = system: Staphylococcus aureus; test: Antibacterial activity against Staphylococcus aureus assessed as inhibition of bacterial growth incubated for 24 hrs by microbroth two-fold dilution method; format: functional
[4] = system: Streptococcus agalactiae; test: Antibacterial activity against Streptococcus agalactiae assessed as inhibition of bacterial growth incubated for 24 hrs by microbroth two-fold dilution method; format: functional
[5] = system: Staphylococcus aureus; test: Antibacterial activity against Methicillin-resistant Staphylococcus aureus BNCC 337371 assessed as inhibition of bacterial growth incubated for 24 hrs by microbroth two-fold dilution method; format: functional
[6] = system: Staphylococcus aureus; test: Antibacterial activity against Staphylococcus aureus assessed as diameter of the inhibition circle at 1 mg/ml incubated for 48 hrs; format: functional
[7] = system: Escherichia coli; test: Antibacterial activity against Escherichia coli assessed as bacterial growth by measuring optical density at 1 to 2 times MIC incubated for 12 hrs by real time growth curve analysis; format: functional
[8] = system: Staphylococcus aureus; test: Antibacterial activity against Staphylococcus aureus assessed as bacterial growth by measuring optical density incubated for 12 hrs by real time growth curve analysis; format: functional
[9] = system: Escherichia coli; test: Antibacterial activity against Escherichia coli assessed as bacterial growth by measuring optical density at 0.5 times MIC incubated for 12 hrs by real time growth curve analysis; format: functional
[10] = system: Streptococcus agalactiae; test: Antibacterial activity against Streptococcus agalactiae assessed as bacterial growth by measuring optical density at 1 to 2 times MIC incubated for 12 hrs by real time growth curve analysis; format: functional
[11] = system: Streptococcus agalactiae; test: Antibacterial activity against Streptococcus agalactiae assessed as bacterial growth by measuring optical density at 0.5 times MIC incubated for 12 hrs by real time growth curve analysis; format: functional
[12] = system: Mycoplasmoides pneumoniae; test: Antibacterial activity against Mycoplasma pneumoniae assessed as inhibition of bacterial growth; format: functional
[13] = system: Shigella dysenteriae; test: Antibacterial activity against Shigella dysenteriae assessed as inhibition of bacterial growth; format: functional
[14] = system: HEK-293T; test: Cytotoxicity against human HEK293T cells assessed as cell viability incubated for 16 hrs by MTT assay; format: toxicity, cell-based
[15] = system: Staphylococcus aureus; test: Bactericidal activity against Staphylococcus aureus assessed as bacterial killing at 1 to 4 times MIC incubated up to 24 hrs by time kill assay; format: functional
[16] = system: L02; test: Cytotoxicity against human L02 cells assessed as cell viability incubated for 16 hrs by MTT assay; format: toxicity, cell-based; conditions: l02, 16 h
[17] = system: Staphylococcus aureus; test: Bactericidal activity against Staphylococcus aureus assessed as bacterial killing at 16 times MIC incubated for 12 hrs by time kill assay; format: functional
[18] = system: Staphylococcus aureus; test: Bactericidal activity against Staphylococcus aureus assessed as bacterial killing at 32 times MIC incubated for 12 hrs by time kill assay; format: functional
[19] = system: Staphylococcus aureus; test: Bactericidal activity against Staphylococcus aureus assessed as bacterial killing at 32 times MIC incubated for 9 hrs by time kill assay; format: functional

Structure (SMILES): C=C[C@]1(C)C[C@@H](OC(=O)CSCCN(CC)CC)[C@]2(C)[C@H](C)CC[C@]3(CCC(=O)[C@H]32)[C@@H](C)[C@@H]1O [TIAMULIN]
- Activity [1]: Active
- MIC [2]: 15.6 µg/mL (≈ 31.6 µM)
- MIC [3]: 0.488 µg/mL (≈ 0.989 µM)
- MIC [4]: 0.122 µg/mL (≈ 0.247 µM)
- MIC [5]: 0.488 µg/mL (≈ 0.989 µM)
- inhibition zone diameter [6]: 25.2 mm

Structure (SMILES): C=C[C@]1(C)C[C@@H](OC(=O)CSc2nc(NCCO)c3ccccc3n2)[C@]2(C)[C@H](C)CC[C@]3(CCC(=O)[C@H]32)[C@@H](C)[C@@H]1O
- MIC [2]: 0.03 µg/mL (≈ 0.0516 µM)
- MIC [3]: 0.0153 µg/mL (≈ 0.0263 µM)
- OD [7]: 0.1
- OD [8]: <0.3
- MIC [4]: 0.0153 µg/mL (≈ 0.0263 µM)
- OD [9]: <0.3
- OD [10]: 0.1
- MIC [5]: 0.0305 µg/mL (≈ 0.0524 µM)
- inhibition zone diameter [6]: 30.5 mm
- OD [11]: <0.3

Structure (SMILES): C=C[C@]1(C)C[C@@H](OC(=O)CSc2nc(N3CCNCC3)c3ccsc3n2)[C@]2(C)[C@H](C)CC[C@]3(CCC(=O)[C@H]32)[C@@H](C)[C@@H]1O
- MIC [2]: 0.976 µg/mL (≈ 1.59 µM)
- MIC [3]: 0.0076 µg/mL (≈ 0.0124 µM)
- OD [7]: 0.1
- OD [8]: <0.3
- MIC [4]: 0.0153 µg/mL (≈ 0.025 µM)
- OD [9]: <0.3
- OD [10]: 0.1
- MIC [5]: 0.122 µg/mL (≈ 0.199 µM)
- inhibition zone diameter [6]: 26.8 mm
- OD [11]: <0.3

Structure (SMILES): C=C[C@]1(C)C[C@@H](OC(=O)CSc2nc(N(C)CCN(C)C)c3ccsc3n2)[C@]2(C)[C@H](C)CC[C@]3(CCC(=O)[C@H]32)[C@@H](C)[C@@H]1O
- MIC [2]: 0.244 µg/mL (≈ 0.388 µM)
- MIC [3]: 0.0019 µg/mL (≈ 0.00302 µM)
- OD [7]: 0.1
- MIC [4]: 0.244 µg/mL (≈ 0.388 µM)
- OD [9]: <0.3
- OD [10]: 0.1
- MIC [5]: 0.244 µg/mL (≈ 0.388 µM)
- inhibition zone diameter [6]: 29.4 mm
- OD [11]: <0.3

Structure (SMILES): C=C[C@]1(C)C[C@@H](OC(=O)CSC(C)(C)CNC(=O)[C@H](N)C(C)C)[C@]2(C)[C@H](C)CC[C@]3(CCC(=O)[C@H]32)[C@@H](C)[C@@H]1O [VALNEMULIN]
- MIC [12]: 0.03 µg/mL (≈ 0.0531 µM)
- MIC [13]: 0.03 µg/mL (≈ 0.0531 µM)

Structure (SMILES): C=C[C@]1(C)C[C@@H](OC(=O)CSc2nc(NCCO)c3ccsc3n2)[C@]2(C)[C@H](C)CC[C@]3(CCC(=O)[C@H]32)[C@@H](C)[C@@H]1O
- MIC [2]: 0.0076 µg/mL (≈ 0.0129 µM)
- MIC [3]: 0.0019 µg/mL (≈ 0.00323 µM)
- OD [7]: 0.1
- Activity [14]: Non-Toxic
- OD [8]: <0.2
- MIC [4]: 0.0019 µg/mL (≈ 0.00323 µM)
- Activity [15]: 99.9%
- OD [9]: <0.3
- OD [10]: 0.1
- Activity [16]: Non-Toxic
- MIC [5]: 0.0019 µg/mL (≈ 0.00323 µM)
- inhibition zone diameter [6]: 33 mm
- OD [11]: <0.3

Structure (SMILES): C=C[C@]1(C)C[C@@H](OC(=O)CS[C@@H]2C[C@H]3CC[C@@H](C2)N3C)[C@]2(C)[C@H](C)CC[C@]3(CCC(=O)[C@H]32)[C@@H](C)[C@@H]1O [RETAPAMULIN]
- MIC [2]: 1.95 µg/mL (≈ 3.77 µM)
- MIC [3]: 0.122 µg/mL (≈ 0.236 µM)
- MIC [4]: 0.0305 µg/mL (≈ 0.0589 µM)
- MIC [5]: 0.0621 µg/mL (≈ 0.12 µM)
- inhibition zone diameter [6]: 30.4 mm

Structure (SMILES): C=C[C@]1(C)C[C@@H](OC(=O)CSc2nc(N/N=C/c3cccs3)c3ccsc3n2)[C@]2(C)[C@H](C)CC[C@]3(CCC(=O)[C@H]32)[C@@H](C)[C@@H]1O
- MIC [2]: 7.81 µg/mL (≈ 12 µM)
- MIC [3]: 0.977 µg/mL (≈ 1.5 µM)
- MIC [4]: 0.488 µg/mL (≈ 0.748 µM)
- inhibition zone diameter [6]: 22.8 mm

Structure (SMILES): C=C[C@]1(C)C[C@@H](OC(=O)CSc2nc(N3CCCNCC3)c3ccsc3n2)[C@]2(C)[C@H](C)CC[C@]3(CCC(=O)[C@H]32)[C@@H](C)[C@@H]1O
- MIC [2]: 0.976 µg/mL (≈ 1.56 µM)
- MIC [3]: 0.122 µg/mL (≈ 0.195 µM)
- MIC [4]: 0.061 µg/mL (≈ 0.0973 µM)
- inhibition zone diameter [6]: 26.2 mm

Structure (SMILES): C=C[C@]1(C)C[C@@H](OC(=O)CSc2ncc(C)c(N3CCN(CC)CC3)n2)[C@]2(C)[C@H](C)CC[C@]3(CCC(=O)[C@H]32)[C@@H](C)[C@@H]1O
- MIC [2]: 3.91 µg/mL (≈ 6.52 µM)
- MIC [3]: 0.244 µg/mL (≈ 0.408 µM)
- MIC [4]: 0.244 µg/mL (≈ 0.408 µM)
- inhibition zone diameter [6]: 26.6 mm

Structure (SMILES): C=C[C@]1(C)C[C@@H](OC(=O)CSc2nc(N3CCN(CC)CC3)c3ccsc3n2)[C@]2(C)[C@H](C)CC[C@]3(CCC(=O)[C@H]32)[C@@H](C)[C@@H]1O
- Activity [17]: 99.9%
- MIC [2]: 0.122 µg/mL (≈ 0.191 µM)
- MIC [3]: 0.0019 µg/mL (≈ 0.00296 µM)
- OD [7]: 0.1
- Activity [14]: Non-Toxic
- Activity [18]: 99.9%
- OD [8]: <0.2
- MIC [4]: 0.122 µg/mL (≈ 0.191 µM)
- Activity [15]: 99.9%
- OD [9]: <0.3
- OD [10]: 0.1
- Activity [16]: Non-Toxic
- Activity [19]: 99.9%
- MIC [5]: 0.0076 µg/mL (≈ 0.0119 µM)
- inhibition zone diameter [6]: 33.5 mm
- OD [11]: <0.3
